Experimental data: PubChem BioAssay AID449764 (Southern Research Specialized Biocontainment Screening …, 2010)
pIC50: −log10 of the molar value.

Tested on: Mycobacterium tuberculosis H37Rv growth inhibition, no glycerol
Test: Confirmatory growth inhibition assay, Mycobacterium tuberculosis H37Rv, absence of glycerol (AID 449764);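 also: growth read after 7 days of incubation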
Details: for IC90: measured here: IC90 growth inhibition

Structure (SMILES) | pIC50 | IC90 [µM]
CC(C)(C)NC(=O)[C@@H]1C[C@@H]2CCCC[C@@H]2CN1C[C@@H](O)[C@H](Cc1ccccc1)NC(=O)[C@H](CC(N)=O)NC(=O)c1ccc2ccccc2n1 | 4.48 | 52.8
Oc1ccc2ccccc2c1C1Nc2cccc3cccc(c23)N1 |  | > 100
N#C/C(=N/Nc1ccc(OC(F)(F)F)cc1)C(N)=S | 5.92 | 1.74
N#Cc1ccc(CN2CCN(CC(=O)NCCc3ccc(Cl)cc3Cl)CC2)cc1 | 4.35 | 51.2
CC1(c2nnc(-c3ccncc3)o2)CC(c2ccccc2)=NO1 (centres undefined) | 4.16 | > 100
CCc1ccc(C2=NN(c3ccc(S(N)(=O)=O)cc3)C(c3ccc(F)cc3)C2)cc1 (centres undefined) | 4.39 | 53.3
CC(C)CNC(=S)NC(=O)c1csc([N+](=O)[O-])c1 | 4.65 | 53.7
COc1ccc(-c2c(C#N)c(SCC(=O)c3cc4ccccc4oc3=O)nc(C)c2C(=O)Nc2ccccc2)cc1 | 4.14 | > 100
CC1(C)OC(=O)C(=Cc2ccc[nH]2)C(=O)O1 | > 6.70 | > 100
O=C(NCC1CCN(c2ccc(S(=O)(=O)N3CCOCC3)cc2)CC1)c1ccc(Cl)cc1 | 4.39 | 57
O[C@@H](c1cc(C(F)(F)F)nc2c(C(F)(F)F)cccc12)[C@H]1CCCCN1 | 4.64 | 25.5
COc1ccc(CNC[C@@H](CCCCN(C)Cc2ccc(OC)cc2)N2C[C@H](c3ccccc3)N(CCc3ccc(Cl)c(Cl)c3)C(=O)C2=O)cc1 | 4.98 | 14
Fc1cccc(CCN2CCNC[C@H]2Cc2cccc3ccccc23)c1 | 4.45 | 46.3
O=[N+]([O-])c1ccc(C2Oc3ccccc3C3CC(c4ccccc4)=NN32)s1 (centres undefined) | 5.15 | 9.52
CCN1CSC(=S)N(Cc2ccccc2)C1 | 4.49 | 60.7
COc1cc(/C=C2\C(=O)N(c3ccc(S(N)(=O)=O)cc3)N=C2C)ccc1OC(=O)c1ccco1 | 4.65 | 26.1
CCc1ccc2oc(-c3cc(N=Cc4cccc(OC)c4O)ccc3O)nc2c1 | 4.19 | 95
COc1ccc(N=c2ssnc2Cl)cc1 | 4.04 | > 100
CCOC(=O)COc1ccc(C2CC(C)=NN2c2ccccc2)cc1 (centres undefined) | 5.09 | 12.9
Cc1nn(-c2ccccc2)c(N)c1N=Nc1ccc(Cl)cc1 | 4.28 | > 100
Cc1cc(Cl)ccc1OCCCC(=O)NO | 4.19 | > 100
Cc1ccc(-c2nc3c(c(=O)c4ccccc4n3C)c(=O)n2Cc2ccco2)cc1 | 4.60 | 40.2

Structure (SMILES) | pIC50 | IC90 [µM]
CS/C(Nc1cc(Cl)ccc1Cl)=C(/C#N)C(=O)c1ccco1 | 4.69 | > 100
O=C(CNC(=O)c1ccco1)OCc1ccc(C(=O)Oc2ccccc2)cc1 | 4.78 | 26.6
O=C(C[C@@H]1C/C=C\C[C@H](NC(=O)OCC2c3ccccc3-c3ccccc32)C(=O)OC[C@H]2CCCN2C1=O)N[C@@H](CO)Cc1ccccc1 | 4.56 | 37.2
Cc1c(C(=O)Oc2cccc3ccccc23)cnn1-c1ccccc1 | 4.64 | 26.1
CN1CC=C(/C=C/c2ccc(-c3ccccc3)cc2)CC1 | 4.61 | 28
COC(=O)C1=C(c2ccc(OCc3ccccc3)cc2)C[C@@H]2CC[C@H]1N2C(=O)NC1CCN(Cc2ccccc2)CC1 | 4.60 | 29.1
Cc1ccc(C(=O)n2c(N)nc3ccccc32)cc1 | 4.05 | > 100
O=C(C[n+]1ccc(C(=O)N/N=C/c2ccc(O)cc2)cc1)c1ccccc1 | 5.02 | > 100
COc1ccc(C(CCNCc2ccc(OC(C)C)cc2)C(C)C)cc1 (centres undefined) | 4.62 | 32.4
CNC(CC(=O)c1ccc([N+](=O)[O-])cc1)C(Cl)(Cl)Cl (centres undefined) | 5.27 | 7.81
Cc1ccccc1N/N=C/c1c(C)nc2ccccn12 | 4.24 | 72.5
CCc1nc2ccccc2c(C(=O)Nc2cc(C)ccc2C)c1C |  | > 100
COc1cc(C)ccc1S(=O)(=O)N1CCN(C23CC4CC(CC(C4)C2)C3)CC1 | 4.33 | 51.1
CCOC(=O)CCCNC(=O)COC(=O)c1cc(Br)c(Br)s1 | 4.73 | > 100
O=C1Nc2ccc(Br)cc2/C1=C/C(=O)c1ccc2c(c1)OCO2 | 4.74 | 23.7
CCOC(=O)c1c(NC(=O)C(NCCN(C)C)c2ccccc2)sc2c1CCCC2 (centres undefined) | 5.03 | 12.1
CCC(=O)c1ccc(OCC(O)CN2CCN(c3cccc(C(F)(F)F)c3)CC2)cc1 (centres undefined) | 4.71 | 26.7
O=C(CN1CCN(c2ccccc2O)CC1)Nc1ccccc1C(=O)NCCc1ccccc1 | 4.14 | > 100
CC(=O)n1cc(N(C(=O)CCl)c2ccc(Cl)cc2)c2ccccc21 | 5.43 | 6.76
CSc1nn(-c2ccc(C(=O)OCC(=O)NC(=O)NC(C)C)cc2)c(=S)s1 | 4.45 | 48.9
CC(=O)c1ccc(-n2cc(-c3ccc(C(C)(C)C)cc3)[n+]3c2SCCC3)cc1 | 4.69 | 26.9
